Assay results taken from patent publication EP0605432B1, “INDUCTION OF CYTOLYTIC T-L[…] CYTOMEGALOVIRUS POLYPEPTIDES” (CITY OF HOPE, priority 1992, dated 2001).

Test system: HCMV infected cells
Assay: CTL analysis of HPLC purified pp65-CNBr digest peptides
Type: cell-based, human
Details: identification method: by experiment
Method: For chemical cleavage with CNBr, pp65 was dissolved in 60% formic acid and treated overnight under argon with a 100 fold molar excess of CNBr (over methionine residues). The solvent was evaporated at room temperature under a stream of argon, the residue resuspended in water and lyophilized. The peptides were fractionated by HPLC on a Vydac C4 reverse phase column, using a 90-minute linear gradient from 100% solvent A (0.1% TFA) to 100% solvent B (TFA/H2O/CH3CN, 0.1/9.9/90, v/v/v/). The HPLC purified peaks from map A were subjected to amino acid sequencing (performed by City of Hope) and from map B were used for CTL analysis (performed at the Fred Hutchinson Cancer Center).
Figure 4 is a map produced by the HPLC analysis. The HPLC purified peptide peaks designated by asterisks in Figure 4 were sequenced. These peptides correspond to sequences 1 through 6 (Sequence ID Nos. 1-6), of this application. The invention includes the use of these six peptides or portions thereof to lyse HCMV infected cells, and as immunogens in HCMV vaccines and skin test formulations.

Substance	induction of CTLs that lyse HCMV infected cells
SEQ ID NO:1: Fragment of pp65 protein expressed by HCMV (Towne), 98 amino acid residues, amino acid 12-109	Induces CTLs that lyse HCMV infected cells
SEQ ID NO:6: C-terminal fragment of HCMV pp65 protein, 62 amino acid residues, amino acid 500-561	Induces CTLs that lyse HCMV infected cells
